Measured values from paper PMC7997574, “Lead Optimization of Benzoxazolone Carboxamides as Orally Bioavailable and CNS Penetrant Acid Ceramidase Inhibitors” (Journal of Medicinal Chemistry, 2020).
Where “and” joins values, the source holds several entries; their conditions need not be identical. Identical values can stand only once.

Legend:
[1] = In vivo pharmacokinetic study in male CD1 mice; details: mouse
Description: Male CD1 mice (22–24 g, 6 weeks old, SLAC Laboratory Animal Co. Ltd.) were group-housed in ventilated cages and had free access to water and food. They were maintained under a […] at controlled temperature and relative humidity. All efforts were made to minimize animal suffering and to use the minimal number of animals required to produce reliable results. All procedures were performed in accordance with the Ethical Guidelines on the Protection of Animals Used for Scientific Purposes at the DMPK Group at Shanghai ChemPartner Co., Ltd. 22m was administrated intravenously (i.v.) at 3 mg kg^–1 (vehicle: 100% saline at 0.6 mg mL^–1) via tail vein injection (N = 18) and via oral administration (p.o.) at 10 mg kg^–1 (vehicle: 100% saline at 2.0 mg mL^–1) by oral gavage (N = 18). Sample collection. Samples were collected at 0.25, 0.5, 1, 4, 8, and 24 h. Animals were sacrificed 24 h after 22m administration; plasma, brain, and CSF samples were collected and stored at −80 °C. Blood collection: The animal was restrained manually, and approximately 150 μL of blood/time point was collected into the K2EDTA tube via retro orbital puncture under anesthesia with isoflurane. The blood sample was put on ice and centrifuged to obtain the plasma sample (2000 × g, 5 min under 4 °C) within 15 min and then acidified following 100 μL of plasma + 1.0 μL of formic acid. An aliquot of 20 μL sample (pretreatment with 1% formic acid) was added with 200 μL of IS (propranolol, 40 ng mL^–1) in MeCN. The mixture was vortexed for 5 min and centrifuged at 6000 rpm for 10 min. The 0.5 μL mixture was injected into LC/MS/MS. Brain collection: Brain was removed and immediately homogenized immediately for 2 min with three volumes (v/w) of homogenizing solution (PBS:formic acid = 100:1), and then the solution was stored in tubes under −70 °C until analysis. An aliquot of 20 μL sample was added with 200 μL of MeCN, which contains IS (propranolol, 40 ng mL^–1) for protein precipitation. The mixture was vortexed for 5 min and centrifuged at 6000 rpm for 10 min. The 0.5 μL mixture was injected into LC/MS/MS. CSF collection: A midline incision was made on the neck. The muscle under the skin was cut to expose the cisterna magna. The CSF was collected by capillary. An aliquot of 3 μL sample was added with 90 μL of IS (propranolol, 40 ng mL^–1) in MeCN:H2O = 2:1 (added 1% formic acid). The mixture was vortexed for 5 min and centrifuged at 6000 rpm for 10 min. The 1.5 μL mixture was injected into LC/MS/MS. 22m sample levels were monitored on an LC/MS/MS-19 (API5500, Qtriple) system, using the calibration curve and […] as internal standard. Chromatography was carried out on a Waters BEH C18 column (2.1 × 50 mm, 1.7 μm) at 60 °C, setting a flow rate of 0.60 mL min^–1. Mobile phases were as follows: A = H2O/0.025% formic acid/1 mM NH4OAc and B = MeOH/0.025% formic acid/1 mM NH4OAc. After the initial 0.20 min at 10% of mobile phase B, the percentage of mobile phase B increased at 70% at 0.50 min, reaching steadily 90% in the range of 0.80–1.30 min. Then the system returned to the initial conditions in a single step until 1.80 min. The following parent (m/z)/daughter (m/z) transitions were monitored: 22m: m/z = 332.20/[…] Da; […] (IS): m/z: 260.30/116.10 Da.

AC = target: T1, AC (Homo sapiens, UniProt Q13510); assay: Kinetic studies on hAC-enriched lysates (Michaelis–Menten analysis, ki/KI); type: biochemical; design: expressed in transfected cells; details: time-dependent inhibition of hAC
T1 sequence (Q13510 22-395): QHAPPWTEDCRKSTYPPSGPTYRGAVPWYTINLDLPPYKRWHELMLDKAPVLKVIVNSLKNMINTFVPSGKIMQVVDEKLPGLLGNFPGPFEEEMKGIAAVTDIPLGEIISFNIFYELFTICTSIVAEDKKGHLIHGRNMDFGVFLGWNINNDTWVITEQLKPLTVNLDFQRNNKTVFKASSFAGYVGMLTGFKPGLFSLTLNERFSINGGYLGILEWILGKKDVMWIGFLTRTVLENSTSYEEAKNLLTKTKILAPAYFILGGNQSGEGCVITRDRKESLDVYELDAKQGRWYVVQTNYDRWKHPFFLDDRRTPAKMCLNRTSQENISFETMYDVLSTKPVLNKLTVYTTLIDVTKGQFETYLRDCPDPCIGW
Description: Assay conditions for the kinetic studies were the same as those described for the fluorogenic hAC assay. Enzyme-enriched lysate (2 μg) was incubated with the following concentrations of substrate Rbm14–12: 0.25, 0.5, 1, 2.5, 5, 10, 12.5, and 15 μM. Compound 22m was used at final concentrations of 100 and 400 nM. Initial velocities (V0) were determined and automatically fitted to the Michaelis–Menten equation to obtain the kinetic parameters (KM and Vmax). The graph is representative of two independent experiments, each performed in three technical replicates. Graphs and data analysis were performed using GraphPad Prism 5 software (GraphPad Software Inc., CA, USA).
hAC activity was measured as a function of reaction time in the presence of different concentrations of 22m. The apparent inactivation rate constant of hAC (kobs) was analyzed by nonlinear square fitting each data set to the pseudo-first-order rate equation Y = vi(1 – exp(−kobst))/kobs. Replotting of calculated kobs vs [22m] was made, and the kinetic parameter ki/KI was calculated by nonlinear square fitting data to the equation Y = kiI/(KI + I). The graphs are representative of two independent experiments, each performed in two technical replicates.

[2] = plasma, oral bioavailability, 10 mg kg^–1 p.o.

CC(C)CNC(=O)n1c(=O)oc2cc(C3CCN(C)CC3)ccc21 [22m, N-Isobutyl-6-(1-methyl-4-piperidyl)-2-oxo-1,3-benzoxazole-3-carboxamide]
AUC at 24 h ([1]; iv, CSF, 3 mg kg^–1 i.v.): 77.8 ng·h/mL | Cmax at 24 h ([1]; iv, CSF, 3 mg kg^–1 i.v.): 71.6 ng/mL | Tmax ([1]; iv, CSF, 3 mg kg^–1 i.v.): 0.25 h | half-life at 24 h ([1]; iv, CSF, 3 mg kg^–1 i.v.): 0.661 h | AUC at 24 h ([1]; iv, brain, 3 mg kg^–1 i.v.): 10100 ng·h/mL | Cmax at 24 h ([1]; iv, brain, 3 mg kg^–1 i.v.): 6440 ng/mL | Tmax ([1]; iv, brain, 3 mg kg^–1 i.v.): 0.25 h | half-life at 24 h ([1]; iv, brain, 3 mg kg^–1 i.v.): 1.01 h | AUC at 24 h ([1]; iv, plasma, 3 mg kg^–1 i.v.): 212 ng·h/mL | half-life ([1]; iv, plasma, 3 mg kg^–1 i.v.): 1 h | half-life at 24 h ([1]; iv, plasma, 3 mg kg^–1 i.v.): 1.26 h | clearance at 24 h ([1]; iv, plasma, 3 mg kg^–1 i.v., read-out: Cl (L h^–1 kg^–1) (converted)): 235 mL/min/kg | Vd at 24 h ([1]; iv, plasma, 3 mg kg^–1 i.v., read-out: Vdss (L kg^–1)): 12.5 L/kg | bioavailability [1, 2]: 58% | bioavailability at 24 h [1, 2]: 58.3% | AUC at 24 h ([1]; po, CSF, 10 mg kg^–1 p.o.): 119 ng·h/mL | Cmax at 24 h ([1]; po, CSF, 10 mg kg^–1 p.o.): 52.2 ng/mL | Tmax ([1]; po, CSF, 10 mg kg^–1 p.o.): 1 h | half-life at 24 h ([1]; po, CSF, 10 mg kg^–1 p.o.): 1.23 h | AUC at 24 h ([1]; po, brain, 10 mg kg^–1 p.o.): 14600 ng·h/mL | Cmax at 24 h ([1]; po, brain, 10 mg kg^–1 p.o.): 6900 ng/mL | Tmax ([1]; po, brain, 10 mg kg^–1 p.o.): 1 h | half-life at 24 h ([1]; po, brain, 10 mg kg^–1 p.o.): 1.18 h | AUC at 24 h ([1]; po, plasma, 10 mg kg^–1 p.o.): 412 ng·h/mL | Cmax at 24 h ([1]; po, plasma, 10 mg kg^–1 p.o.): 216 ng/mL | Tmax at 24 h ([1]; po, plasma, 10 mg kg^–1 p.o.): 0.5 h | half-life at 24 h ([1]; po, plasma, 10 mg kg^–1 p.o.): 1.03 h | ki (AC): 0.15 min^–1 | ki/KI (AC): 0.02 μM^–1 min^–1 and 0.02±0.001 μM^–1 min^–1
